Read-outs that look alike come from different tables or passages of the source.
Columns and labels:
[1] = test system: HER-2 receptor (Hsp90 client) in MCF-7 cells; assay: HER-2 degradation assay (MCF-7 cells, 16 h, phycoerythrin-labeled antibody and flow cytometry); type: cell-based, human
[2] = Solubility in simulated gastric fluid, simulated intestinal fluid and serum; type: physicochemical; conditions: for Serum (PH 7.4): solubility in serum; for Gastric (PH 2.0): solubility in simulated gastric fluid; for Intestinal (PH 6.5): solubility in simulated intestinal fluid
[3] = Homo sapiens, MCF7, MCF-7 cells, 16 h, average of at least three observations, read-out: HER-2 IC50
[4] = Homo sapiens, MCF7, read-out: HER-2 IC50(nM)
[5] = Homo sapiens, MCF7, benzothiozole moiety SAR, MCF-7, read-out: HER-2 IC50
[6] = Homo sapiens, MCF7, read-out: HER-2

CCCCn1c(Cc2cc(OC)ccc2I)nc2c(N)ncnc21 [Compound 20, 9-Butyl-8-(2-iodo-5-methoxy-benzyl)-9H-purin-6-ylamine]
IC50 [1, 3]: 5000 nM

CCCCn1c(Cc2cc(OC)ccc2Br)nc2c(N)ncnc21 [Compound 23, 8-(2-Bromo-5-methoxy-benzyl)-9-butyl-9H-purin-6-ylamine]
IC50 [1, 3]: 8000 nM

CCCCn1c(Sc2cc(OC)ccc2OC)nc2c(N)ncnc21 [Compound 43, 9-Butyl-8-(2,5-dimethoxy-phenylsulfanyl)-9H-purin-6-ylamine]
IC50 [1, 3]: 3500 nM

C#CCCCn1c(Sc2cc(OC)ccc2I)nc2c(N)nc(F)nc21 [Compound 68, 2-Fluoro-8-(2-iodo-5-methoxy-phenylsulfanyl)-9-pent-4-ynyl-9H-purin-6-ylamine]
IC50 [1, 3]: 360 nM

CCCCn1c(Sc2nc3cccc(Br)c3s2)nc2c(N)ncnc21 [Compound 171, 8-(7-Bromo-benzothiazol-2-ylsulfanyl)-9-butyl-9H-purine-6-ylamine]
IC50 [1, 4]: 330 nM

CCCCn1c(Sc2nc3cccc(C)c3s2)nc2c(N)ncnc21 [Compound 172, 9-Butyl-8-(7-methyl-benzothiazol-2-ylsulfanyl)-9H-purine-6-ylamine]
IC50 [1, 4]: 300 nM

CCCCn1c(Sc2nc3cccc(OC)c3s2)nc2c(N)ncnc21 [Compound 173, 9-Butyl-8-(7-methoxy-benzothiazol-2-ylsulfanyl)-9H-purine-6-ylamine]
Serum (PH 7.4) [2]: 18 µg/mL
Gastric (PH 2.0) [2]: 35 µg/mL
Intestinal (PH 6.5) [2]: 2 µg/mL
IC50 [1, 4]: 190 nM

CCCCn1c(Sc2nc3cccc(OCC)c3s2)nc2c(N)ncnc21 [Compound 174, 9-Butyl-8-(7-ethoxy-benzothiazol-2-ylsulfanyl)-9H-purine-6-ylamine]
IC50 [1, 5]: 100000 nM

CCCCn1c(Sc2nc3cccc(F)c3s2)nc2c(N)ncnc21 [Compound 175, 9-Butyl-8-(7-fluoro-benzothiazol-2-ylsulfanyl)-9H-purine-6-ylamine]
IC50 [1, 4]: 200 nM

CCCCn1c(Sc2nc3cncc(Cl)c3s2)nc2c(N)ncnc21 [Compound 177, 9-Butyl-8-(7-chloro-thiazole[4,5-c]pyridin-2-ylsulfanyl)-9H-purin-6-ylamine]
IC50 ([1]; pyridothiazole moiety SAR, HER-2 degradation activity, read-out: HER-2): 280 nM

CCCCn1c(Sc2nc3ccccc3s2)nc2c(N)ncnc21 [Compound 178, 8-(Benzothiazol-2-ylsulfanyl)-9-butyl-9H-purine-6-ylamine]
IC50 [1, 5]: 5000 nM

CCCCn1c(Sc2nc3ccc(Cl)cc3s2)nc2c(N)ncnc21 [Compound 179, 9-Butyl-8-(6-chloro-benzothiazol-2-ylsulfanyl)-9H-purine-6-ylamine]
IC50 [1, 5]: 7000 nM

CCCCn1c(Sc2nc3cc(Cl)ccc3s2)nc2c(N)ncnc21 [Compound 180, 9-Butyl-8-(5-chloro-benzothiazol-2-ylsulfanyl)-9H-purine-6-ylamine]
IC50 [1, 5]: 20000 nM

CCCCn1c(Sc2nc3c(Cl)cccc3s2)nc2c(N)ncnc21 [Compound 181, 9-Butyl-8-(4-chloro-benzothiazol-2-ylsulfanyl)-9H-purine-6-ylamine]
IC50 [1, 5]: 15000 nM

CCCCn1c(Sc2nc3ccc(Cl)c(Cl)c3s2)nc2c(N)ncnc21 [Compound 185, 9-Butyl-8-(6,7-dichloro-benzothiazol-2-ylsulfanyl)-9H-purine-6-ylamine]
IC50 [1, 5]: 25000 nM

CC(=O)OCCn1c(Sc2nc3cncc(Br)c3s2)nc2c(N)ncnc21 [Compound 204, Acetic acid 2-[6-amino-8-(7-bromo-thiazole[4,5-c]pyridin-2-ylsulfanyl)-purin-9-yl]-ethyl ester]
Gastric (PH 2.0) [2]: 98.5 µg/mL
IC50 ([1]; read-out: HER-2): 30 nM

CC(=O)OCCCn1c(Sc2nc3cncc(Cl)c3s2)nc2c(N)ncnc21 [Compound 205, Acetic acid 3-[6-amino-8-(7-chloro-thiazolo[4,5-c]pyridin-2-ylsulfanyl)-purin-9-yl]-propyl ester]
IC50 [1, 6]: 170 nM

CCCCn1c(Sc2nc3cncc(Br)c3s2)nc2c(N)ncnc21 [Compound 207]
IC50 [1, 6]: 400 nM

CCn1c(Sc2nc3cccc(Cl)c3s2)nc2c(N)ncnc21 [Compound 229, 9-ethyl-8-(7-chloro-benzothiazol-2-ylsulfanyl)-9H-purine-6-ylamine]
IC50 [1, 6]: 200 nM

CCCn1c(Sc2nc3cccc(Cl)c3s2)nc2c(N)ncnc21 [Compound 231, 9-Propyl-8-(7-chloro-benzothiazol-2-ylsulfanyl)-9H-purine-6-ylamine]
IC50 [1, 6]: 250 nM

CCCCn1c(Sc2nc3cccc(Cl)c3s2)nc2c(N)ncnc21 [Compound 232, 9-Butyl-8-(7-chloro-benzothiazol-2-ylsulfanyl)-9H-purine-6-ylamine]
IC50 [1, 6]: 180 nM
IC50 [1, 4]: 180 nM

CCCCCn1c(Sc2nc3cccc(Cl)c3s2)nc2c(N)ncnc21 [Compound 233, 9-Pentyl-8-(7-chloro-benzothiazol-2-ylsulfanyl)-9H-purine-6-ylamine]
IC50 [1, 6]: 700 nM

CC(=O)OCCn1c(Sc2nc3cccc(Cl)c3s2)nc2c(N)ncnc21 [Compound 241, Acetic acid 2-[6-amino-8-(7-chloro-benzothiazol-2-ylsulfanyl)-purin-9-yl]-ethyl ester]
IC50 [1, 6]: 150 nM

CC(=O)OCCCCn1c(Sc2nc3cccc(Cl)c3s2)nc2c(N)ncnc21 [Compound 243, Acetic acid 4-[6-amino-8-(7-chloro-benzothiazol-2-ylsulfanyl)-purin-9-yl]-butyl ester]
Gastric (PH 2.0) [2]: 46 µg/mL
Intestinal (PH 6.5) [2]: 3 µg/mL
IC50 [1, 6]: 130 nM

Nc1ncnc2c1nc(Sc1nc3cccc(Cl)c3s1)n2CCO [Compound 244, 2-[6-Amino-8-(7-chloro-benzothiazol-2-ylsulfanyl)-purin-9-yl]-ethanol]
IC50 [1, 6]: 300 nM

Nc1ncnc2c1nc(Sc1nc3cccc(Cl)c3s1)n2CCCO [Compound 245]
IC50 [1, 6]: 150 nM

Nc1ncnc2c1nc(Sc1nc3cccc(Cl)c3s1)n2CCCCO [Compound 246, 4-[6-Amino-8-(7-chloro-benzothiazol-2-ylsulfanyl)-purin-9-yl]-butan-1-ol]
IC50 [1, 6]: 150 nM

CC(C)(C)CNCCn1c(Sc2nc3cccc(Cl)c3s2)nc2c(N)ncnc21 [Compound 247, 8-(7-Chloro-benzothiazol-2-ylsulfanyl)-9-[2-(2,2-dimethyl-propylamino)-ethyl]-9H-purin-6-yl amine]
Serum (PH 7.4) [2]: 4.9 µg/mL
Intestinal (PH 6.5) [2]: 6 µg/mL
IC50 [1, 6]: 35 nM

CC(C)(C)NCCCn1c(Sc2nc3cccc(Cl)c3s2)nc2c(N)ncnc21 [Compound 253, 9-(3-tert-Butylamino-propyl)-8-(7-chloro-benzothiazol-2-ylsulfanyl)-9H-purin-6-yl amine]
Serum (PH 7.4) [2]: 198.7 µg/mL
Intestinal (PH 6.5) [2]: 137.7 µg/mL
IC50 [1, 6]: 150 nM

CC(C)(C)NCCn1c(Sc2nc3cccc(Cl)c3s2)nc2c(N)ncnc21 [Compound 265, 9-(2-tert-Butylamino-ethyl)-8-(7-chloro-benzothiazole-2-ylsulfanyl)-9H-purin-6-yl amine]
IC50 [1, 6]: 140 nM

CC(C)NCCCn1c(Sc2nc3cccc(Cl)c3s2)nc2c(N)ncnc21 [Compound 266, 8-(7-Chloro-benzothiazol-2-ylsulfanyl)-9-(3-isopropylamino-propyl)-9H-purin-6-yl amine]
IC50 [1, 6]: 170 nM

Nc1ncnc2c1nc(Sc1nc3cccc(Cl)c3s1)n2CCN1CCOCC1 [Compound 270, 8-(7-Chloro-benzothiazol-2-ylsulfanyl)-9-(2-morpholin-4-yl-ethyl)-9H-purin-6-ylamine]
IC50 [1, 6]: 250 nM
